Laboratory results: patent publication US11833204B2, “Visible light-activatable nanoparticles for cancer immunotherapy and use thereof” (KOREA INSTITUTE OF SCIENCE AND TECHNOLOGY, priority 2021, dated 2023)

Legend:
H9C2 cells = test: Intracellular behaviour in H9C2 cardiomyocytes (confocal microscopy); format: cell-based; conditions: H9C2, 5 μM, 24 h
Method: (§1) The following experiment was conducted to evaluate the intracellular behaviors of the self-assembled nanoparticles (LT-NPs). First, 1×10^5 CT26 cells or H9C2 cells were plated in a 35 mm cell culture dish, treated with the self-assembled nanoparticles (LT-NPs, 5 μM) prepared in Example 1, and cultured for 24 h. Thereafter, cells were washed with Dulbecco's PBS (DPBS), fixed in 4% formaldehyde for 10 min, stained with 4′,6-diamidino-2-phenylindole (DAPI) for 5 min, and analyzed with a Leica TCS SP8 confocal microscope (Leica Microsystems GmbH).

cathepsin B = cathepsin B (Homo sapiens, UniProt P07858); test: Cleavage of LT-NPs by cathepsin B (RP-HPLC, fluorescence, TEM); format: biochemical
Method: The self-assembled nanoparticles (LT-NPs) prepared in Example 1, doxorubicin (DOX), and verteporfin (VPF) were used as samples. 1 mg of each sample was mixed with physiological saline (1 mL). […] The self-assembled nanoparticles (LT-NPs) were mixed with cathepsin B (Cat-B) protease (50 μg/mL). The mixture was allowed to react for 24 h.
In this example, the activation of the self-assembled nanoparticles (LT-NPs) by cathepsin B (Cat-B) was determined. To this end, an experimental sample and a comparative sample were prepared and allowed to react in an incubator at 37° C. Specific cleavages by cathepsin B were evaluated at reaction times of 0, 9, and 24 h by reversed phase high-performance liquid chromatography (RT-HPLC).
Experimental sample (Cat-B): The self-assembled nanoparticles (LT-NPs) (10 μM) prepared in Example 1 were mixed with a 2-(N-morpholine)-ethanesulphonic acid (MES) buffer (200 μL) containing cathepsin B (10 μg).
Comparative sample (Cat-B+inhibitor): The self-assembled nanoparticles (LT-NPs) (10 μM) prepared in Example 1 were mixed with a 2-(N-morpholine)-ethanesulphonic acid (MES) buffer (200 μL) containing cathepsin B (10 μg) and a cathepsin B inhibitor (Z-FA-FMK, 50 μM).

[1] = system: spleen cells isolated from Balb/c mice; test: Immune cell activation: treated CT26 cells co-cultured with spleen cells (flow cytometry); format: cell-based; conditions: 5 μM, co-culture with spleen cells 24 h; versus doxorubicin or verteporfin alone
Method: First, CT26 cells were plated in 100-pi cell culture dishes at a density of 1×10^6 cells/dish and cultured for stabilization for 24 h. Doxorubicin (DOX) (5 μM), verteporfin (VPF) […] or the self-assembled nanoparticles (LT-NPs) (5 μM) were added to each dish. After 24-h culture, one half was exposed by irradiation with visible light using a 671 nm laser at 40 mW for 250 sec (+L) and the other half was not irradiated with visible light for comparison (−L). 1×10^6 spleen cells isolated from Balb/c mice were added to each sample, followed by co-culture for 24 h (FIG. 4I).
The degrees of differentiation into mature dendritic cells and activated T cells in each sample were analyzed using a flow cytometer.

CT26 cells [2] = test: In vivo behaviour and tumor accumulation in CT26 tumor animal model; design: species or system mice; conditions: 5 mg/kg i.v.
Method: […] nude mice (6 weeks old, 20-25 g, male) bred in a sterile environment were used. The mice were acclimated for 2 weeks prior to starting the experiment. The mice had ad libitum access to food and water in cages maintained at a temperature of 22±2° C. and a humidity of 40-60% on a 12 h light and dark cycle during the experiment. All experimental procedures were performed according to the guidelines of the Institutional Animal Care and Use Committee of the Korea Institute of Science and Technology.
Colon cancer was induced in the male nude mice. To this end, 1×10^6 CT26 cells were subcutaneously inoculated into the left thigh of each mouse to construct a tumor animal model. Thereafter, the tumor was allowed to grow until its volume reached ˜200-250 mm^3 prior to the experiment. For sample administration, the mice were randomly divided into 4 groups, 24 animals per group. Verteporfin (VPF) was intravenously administered at a concentration of 5 mg/kg (“VPF-administered group”) and the self-assembled nanoparticles (LT-NPs) were intravenously administered at a concentration of 5 mg/kg (“LT-NPs-administered group”).
The in vivo behaviors of the drugs in the administered groups were evaluated by near-infrared imaging using an IVIS Lumina system for 0.5-9 h.

CT26 cells [3] = test: Intracellular behaviour in CT26 cancer cells (confocal microscopy); format: cell-based
Method: as §1

[4] = Stability of LT-NPs in mouse plasma (size by DLS); format: in vitro ADME, BALB/c mice; conditions: BALB/c mouse plasma, 0-72 h
Method: In this example, the stability of the self-assembled nanoparticles (LT-NPs) in a body fluid was determined. To this end, the self-assembled nanoparticles (LT-NPs) were stored in plasma samples from BALB/c mice for 0, 1, 3, 6, 24, 48, and 72 h and their sizes were measured by dynamic light scattering (DLS).

For C=CC1=C(C)/C2=C/C3=NC(Cc4[nH]c(c(CCCCC(=O)OC)c4C)CC4N=C(CC1N2)C(C)=C4CCC(=O)N[C@H](Cc1ccccc1)C(=O)N[C@@H](CCCNC(=N)N)C(=O)N[C@H](CCCNC(=N)N)C(=O)NCC(=O)NC1C[C@@H](OC2C[C@](O)(C(=O)CO)Cc4c(O)c5c(c(O)c42)C(=O)c2c(OC)cccc2C5=O)O[C@@H](C)[C@H]1O)[C@@]1(C)C3=CC=C(C(=O)OC)[C@@H]1C(=O)OC (stereo partly shown) [LT-NPs, VPF-FRRG(SEQ ID NO: 1)-DOX], the presence in cells (H9C2 cells) was “observed in both cardiomyocytes (H9C2) and cancer cells (CT26)”, the “state in normal cells” value (H9C2 cells) was “in a stable state in normal cells” and the “cleavage by cathepsin B” value (cathepsin B; 10 μM, cathepsin B 10 μg in MES buffer, 37° C., RP-HPLC and fluorescence) was “cleaved by cathepsin B to release doxorubicin and the photosensitizer”. The “morphology after reaction with cathepsin B (TEM)” value (cathepsin B; Cat-B 50 μg/mL, 24 h) was “degraded by cathepsin B”, the “degree of differentiation into activated T cells” value [1] was “significantly higher” and the “degree of differentiation into mature dendritic cells” value [1] was “significantly higher”. For the same compound, the “accumulation in cancer cells (histological analysis)” value (CT26 cells [2]) was “accumulated in cancer cells with significantly higher efficacy than the conventional anticancer drug”, the “fluorescence intensity in cancer cells (near-infrared imaging)” value (CT26 cells [2]; 0.5-9 h, IVIS Lumina) was “higher than those of Group 1 treated with verteporfin” and the “fluorescence intensity in cancer cells (drug accumulated in tissues)” value (CT26 cells [2]; liver, lung, spleen, kidney, heart, tumor) was “higher than those of Group 1 treated with verteporfin”. The “intracellular cleavage into doxorubicin and verteporfin” value (CT26 cells [3]; CT26, 5 μM, 24 h) was “cleaved specifically to cancer cells”, the presence in cells (CT26 cells [3]; CT26, 5 μM, 24 h) was “observed in both cardiomyocytes (H9C2) and cancer cells (CT26)” and the “intracellular degradation with cathepsin B inhibitor” value (CT26 cells [3]; CT26 treated with cathepsin B inhibitor) was “not degraded and remained stable in the cytoplasm”. For the same compound, the “time-dependent change in size in mouse plasma” value [4] was “stably maintained their morphology in the body fluid”.
